Laboratory results published in ChEMBL document CHEMBL1153982, “Synthesis and evaluation of 2,7-diamino-thiazolo[4,5-d] pyrimidine analogues as anti-tumor epidermal growth factor receptor (EGFR) tyrosine kinase inhibitors” (Bioorg Med Chem Lett, 2009).
≈ marks a conversion by molar mass, not a printed value.

Tests used:
[1] = biological target: Epidermal growth factor receptor (Homo sapiens, UniProt P00533)
[2] = Metabolic stability to human liver microsomes assessed as half life; type: ADME, Microsome
[3] = Solubility in aqueous buffer at pH 2.0; type: physicochemical
[4] = Solubility in aqueous buffer at pH 7.4; type: physicochemical
[5] = Oral bioavailability in rat at 10 mg/kg; type: ADME, organism-based; conditions: in vivo
[6] = Cmax in rat at 10 mg/kg; type: ADME, organism-based; design: dose 10 mg/kg; conditions: in vivo
[7] = AUC in rat at 10 mg/kg; type: ADME, organism-based; design: dose 10 mg/kg; conditions: plasma
[8] = Half life in rat at 10 mg/kg; type: ADME, organism-based; design: dose 10 mg/kg; conditions: in vivo
[9] = Oral bioavailability in mouse at 10 mg/kg; type: ADME, organism-based; conditions: in vivo, read-out: ED15
[10] = Cmax in mouse at 10 mg/kg; type: ADME, organism-based; design: dose 10 mg/kg; conditions: in vivo
[11] = AUC in mouse at 10 mg/kg; type: ADME, organism-based; design: dose 10 mg/kg; conditions: plasma
[12] = Half life in mouse at 10 mg/kg; type: ADME, organism-based; design: dose 10 mg/kg; conditions: in vivo
[13] = biological target: Cyclin-dependent kinase 1 (Homo sapiens, UniProt P06493); assay: Inhibition of CDK1
Cyclin-dependent kinase 1, sequence (P06493 whole entry): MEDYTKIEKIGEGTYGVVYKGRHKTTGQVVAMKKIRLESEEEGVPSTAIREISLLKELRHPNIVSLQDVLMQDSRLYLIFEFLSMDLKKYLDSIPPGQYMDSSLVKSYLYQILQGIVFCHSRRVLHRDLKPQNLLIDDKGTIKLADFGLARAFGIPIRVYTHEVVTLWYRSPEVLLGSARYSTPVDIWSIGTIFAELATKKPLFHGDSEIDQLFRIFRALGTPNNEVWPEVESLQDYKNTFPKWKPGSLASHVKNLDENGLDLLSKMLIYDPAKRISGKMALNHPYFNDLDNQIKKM

Epidermal growth factor receptor, sequence (P00533 whole entry): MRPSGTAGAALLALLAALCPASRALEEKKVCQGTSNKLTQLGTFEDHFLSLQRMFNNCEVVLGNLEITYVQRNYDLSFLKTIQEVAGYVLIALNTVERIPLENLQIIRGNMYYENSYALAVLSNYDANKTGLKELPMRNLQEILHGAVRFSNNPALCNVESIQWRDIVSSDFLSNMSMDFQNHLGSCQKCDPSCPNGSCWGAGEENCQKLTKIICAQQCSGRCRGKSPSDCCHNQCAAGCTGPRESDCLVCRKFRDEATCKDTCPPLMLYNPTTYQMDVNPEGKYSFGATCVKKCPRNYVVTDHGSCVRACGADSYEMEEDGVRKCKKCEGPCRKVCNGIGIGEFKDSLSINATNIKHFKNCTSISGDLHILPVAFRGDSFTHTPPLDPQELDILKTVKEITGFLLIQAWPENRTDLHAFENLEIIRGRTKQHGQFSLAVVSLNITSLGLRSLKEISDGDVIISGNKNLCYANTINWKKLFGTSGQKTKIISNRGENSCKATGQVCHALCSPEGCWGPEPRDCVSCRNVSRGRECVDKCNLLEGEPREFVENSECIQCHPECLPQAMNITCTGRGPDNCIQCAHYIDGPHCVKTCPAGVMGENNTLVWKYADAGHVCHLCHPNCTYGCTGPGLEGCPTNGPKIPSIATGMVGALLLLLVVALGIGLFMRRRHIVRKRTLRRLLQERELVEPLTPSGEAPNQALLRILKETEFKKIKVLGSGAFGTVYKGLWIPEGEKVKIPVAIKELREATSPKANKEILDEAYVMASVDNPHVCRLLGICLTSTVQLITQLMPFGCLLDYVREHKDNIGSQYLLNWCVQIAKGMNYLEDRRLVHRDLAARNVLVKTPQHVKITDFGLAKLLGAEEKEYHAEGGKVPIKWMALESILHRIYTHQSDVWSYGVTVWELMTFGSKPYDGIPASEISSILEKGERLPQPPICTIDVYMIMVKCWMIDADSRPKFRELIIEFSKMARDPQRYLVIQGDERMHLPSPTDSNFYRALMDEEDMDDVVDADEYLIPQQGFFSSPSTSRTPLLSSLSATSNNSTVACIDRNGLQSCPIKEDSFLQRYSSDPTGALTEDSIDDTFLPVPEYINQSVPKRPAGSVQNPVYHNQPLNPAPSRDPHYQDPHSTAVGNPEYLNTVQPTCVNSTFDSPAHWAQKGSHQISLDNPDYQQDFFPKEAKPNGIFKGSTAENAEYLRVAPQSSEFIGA

| SMILES | IC50 [1] [nM] | half-life [2] [h] | solubility [3] [µg/mL] | solubility [4] [µg/mL] | bioavailability [5] [%] | Cmax [6] [ng/mL] | AUC [7] [ng·h/mL] | also measured |
| --- | --- | --- | --- | --- | --- | --- | --- | --- |
| NS(=O)(=O)c1ccc(Nc2nc3ncnc(Nc4cccc(Br)c4)c3s2)cc1 | 10 |  |  |  |  |  |  |  |
| COCCN(CCOC)S(=O)(=O)c1ccc(Nc2nc3ncnc(Nc4ccc(F)c(Cl)c4)c3s2)cc1 | 25 |  |  |  |  |  |  |  |
| Fc1ccc(Nc2ncnc3nc(Nc4ccc(CN5CCCCC5)cc4)sc23)cc1Cl | 10 |  |  |  |  |  |  |  |
| C#Cc1cccc(Nc2ncnc3nc(Nc4ccc(CN5CCOCC5)cc4)sc23)c1 | 43 |  |  |  |  |  |  |  |
| N#Cc1cnc2nc(Nc3ccc(CN4CCOCC4)cc3)sc2c1Nc1ccc(F)c(Cl)c1 |  | 0.217 | 37 (≈ 74.8 µM) | < 0.2 | 10.8 | 28 | 184 | half-life [8]: 4.9 h |
| CN1CCN(Cc2ccc(Nc3nc4ncnc(Nc5ccc(OCc6cccc(F)c6)c(Cl)c5)c4s3)cc2)CC1 | 9 |  |  |  |  |  |  |  |
| OC[C@@H]1CCCN1Cc1ccc(Nc2nc3ncnc(Nc4ccc(F)c(Cl)c4)c3s2)cc1 |  | > 1.67 | 360 (≈ 742 µM) | < 0.2 | 0.3 | 2.4 | 24 |  |
| NS(=O)(=O)c1ccc(Nc2nc3ncnc(Nc4c(F)cccc4F)c3s2)cc1 |  |  |  |  |  |  |  | IC50 [13]: 19800 nM |

Second part, led by results:

| IC50 [1] [nM] | half-life [2] [h] | solubility [3] [µg/mL] | solubility [4] [µg/mL] | bioavailability [5] [%] | Cmax [6] [ng/mL] | AUC [7] [ng·h/mL] | SMILES | also measured |
| --- | --- | --- | --- | --- | --- | --- | --- | --- |
| 3300 |  |  |  |  |  |  | NS(=O)(=O)c1ccc(Nc2nc3ncnc(Nc4ccc(N5CCOCC5)c(Cl)c4)c3s2)cc1 |  |
| 15 | 0.183 | 290 (≈ 598 µM) | < 0.2 | 13 | 289 | 1170 | Fc1ccc(Nc2ncnc3nc(Nc4ccc(CCN5CCOCC5)cc4)sc23)cc1Cl | half-life [8]: 1.8 h |
| 4 |  |  |  |  |  |  | Fc1ccc(Nc2ncnc3nc(Nc4ccc(CN5CCCC5)cc4)sc23)cc1Cl |  |
| 6 | 0.05 | 300 (≈ 625 µM) | < 0.2 |  |  |  | CCc1nccn1Cc1ccc(Nc2nc3ncnc(Nc4ccc(F)c(Cl)c4)c3s2)cc1 |  |
| 12 | 0.317 | > 1000 | 1 (≈ 2.12 µM) | 20 | 527 | 2150 | Fc1ccc(Nc2ncnc3nc(Nc4ccc(CN5CCOCC5)cc4)sc23)cc1Cl | half-life [8]: 1.88 h; bioavailability [9]: 67%; Cmax [10]: 3850 ng/mL; AUC [11]: 10800 ng·h/mL; half-life [12]: 2.9 h |
|  | > 1.67 | 390 (≈ 909 µM) | 27 (≈ 62.9 µM) | 9 | 54 | 322 | CN(C)Cc1ccc(Nc2nc3ncnc(Nc4ccc(F)c(Cl)c4)c3s2)cc1 | half-life [8]: 3.2 h |
| 7 | > 1.67 | < 0.2 | < 0.2 | 0.8 | 39 | 224 | NS(=O)(=O)c1ccc(Nc2nc3ncnc(Nc4cccc(Cl)c4)c3s2)cc1 |  |
